Article PMC5467912, “Asymmetric regulation of quorum-sensing receptors drives autoinducer-specific gene expression programs in Vibrio cholerae” (PLoS Genetics, 2017)
“And” between values parts separate entries of the source, which are not always exact repeats. Identical values can stand only once.

Test system: VCA0107-GFP
Test: Qrr4 regulation of VCA0107-GFP translational fusion, anhydrous tetracycline-inducible qrr4 (S4 Fig)
Type: cell-based, E. coli
Source text: We examined whether Qrr regulation of CqsS is direct or indirect using a CqsS-mKATE2 translational fusion in E. coli expressing inducible qrr4. We reasoned that, if CqsS production is controlled by Qrr4, repression of CqsS-mKATE2 should occur when Qrr4 is induced. We verified that our system works by showing that inducible Qrr4 is capable of repressing a previously-identified direct target, VCA0107-GFP [24]. However, no repression of CqsS-mKATE2 occurred following induction of Qrr4 (S4 Fig).
To assay qrr4 regulation of cqsS, the relative fluorescence of translational fusions (VCA0107B-GFP and CqsS-mKATE2) was measured in E. coli BWR1. E. coli carrying one of these plasmids also contained either an empty plasmid (pZA31) or pZA31 carrying anhydrous tetracycline-inducible qrr4. Qrr4-mediated repression of CqsS-mKATE2 was assessed. VCA0107-GFP is a known Qrr4-repressed target and was used as a positive control to show the system was functional. Overnight cultures were diluted 1:50 into fresh medium and aliquotted in triplicate into 96 well plates. […] OD600 and fluorescence were assessed using an Envision 2103 Multilabel Reader (Perkin Elmer).
Supplementary file pgen.1006826.s008.tiff: S4 Fig Qrr4 indirectly regulates cqsS. Fluorescence from plasmid-encoded VCA0107-GFP (circles) and CqsS-mKATE2 (squares) was measured in E. coli. Either an empty vector (pZA31-lucNB, black) or pZA31-lucNB carrying tetracycline-inducible qrr4 (pYS245, red) was present in each strain. VCA0107 encodes a type VI secretion system component that is regulated by Qrr4. Data represent two experiments conducted in triplicate. Error bars represent standard errors of the mean. (TIFF) Click here for additional data file.

Which “Relative reporter signal, experimental averages” value (pVC107 Qrr4, aTc 0.0976562 ng/ml (normalization point)) does the source give for `Cc1c2c(c(O)c3c(O)cccc13)C(=O)[C@]1(O)C(=O)C(C(N)=O)=C(O)[C@@H](N(C)C)[C@@H]1C2` [aTc] here?
Its value is 1.

What about the “Relative reporter signal, experimental averages” value (pVC107 Qrr4, aTc 0.195312 ng/ml, normalized to 0.0976562 ng/ml) of the same molecule?
The value was 1.025 and 0.934.

What about the “Relative reporter signal, experimental averages” value (pVC107 Qrr4, aTc 0.390625 ng/ml, normalized to 0.0976562 ng/ml) of the same molecule?
The value was 1.044 and 1.031.

What about the “Relative reporter signal, experimental averages” value (pVC107 Qrr4, aTc 0.78125 ng/ml, normalized to 0.0976562 ng/ml) of the same molecule?
The value was 1.069 and 1.04.

What about the “Relative reporter signal, single replicates” value (pVC107 Qrr4, aTc 1.5625 ng/ml) of the same molecule?
The value was 0.9829 and 1.022 and 1.084 and 1.082 and 1.066 and 1.076.

What about the “Relative reporter signal, experimental averages” value (pVC107 Qrr4, aTc 1.5625 ng/ml, normalized to 0.0976562 ng/ml) of the same molecule?
The value was 1.075 and 1.029.

And the “Relative reporter signal, single replicates” value (pVC107 Qrr4, aTc 3.125 ng/ml)?
The value was 0.9883 and 0.983 and 1.044 and 1.076 and 1.038 and 1.063.

And the “Relative reporter signal, experimental averages” value (pVC107 Qrr4, aTc 3.125 ng/ml, normalized to 0.0976562 ng/ml)?
The value was 1.059 and 1.005.

What about the “Relative reporter signal, single replicates” value (pVC107 Qrr4, aTc 6.25 ng/ml) of the same molecule?
Its value is 0.8986 and 0.9025 and 1.018 and 1.038 and 1.0458 and 1.143.

What about the “Relative reporter signal, experimental averages” value (pVC107 Qrr4, aTc 6.25 ng/ml, normalized to 0.0976562 ng/ml) of the same molecule?
The value was 1.075 and 0.9397.

And the “Relative reporter signal, single replicates” value (pVC107 Qrr4, aTc 12.5 ng/ml)?
Its value is 0.8122 and 0.8585 and 0.963 and 0.9294 and 0.9674 and 1.0333.

What about the “Relative reporter signal, experimental averages” value (pVC107 Qrr4, aTc 12.5 ng/ml, normalized to 0.0976562 ng/ml) of the same molecule?
The value was 0.9767 and 0.8779.

And the “Relative reporter signal, single replicates” value (pVC107 Qrr4, aTc 25 ng/ml)?
Its value is 0.8439 and 0.8636 and 0.8571 and 0.6965 and 0.6285 and 0.7212.

What about the “Relative reporter signal, experimental averages” value (pVC107 Qrr4, aTc 25 ng/ml, normalized to 0.0976562 ng/ml) of the same molecule?
The value was 0.6821 and 0.8548.

What about the “Relative reporter signal, single replicates” value (pVC107 Qrr4, aTc 50 ng/ml) of the same molecule?
Its value is 0.8785 and 0.8105 and 0.7819 and 0.6416 and 0.6171 and 0.6104.

What about the “Relative reporter signal, experimental averages” value (pVC107 Qrr4, aTc 50 ng/ml, normalized to 0.0976562 ng/ml) of the same molecule?
Its value is 0.623 and 0.8236.

And the “Relative reporter signal, single replicates” value (pVC107 Qrr4, aTc 100 ng/ml)?
The value was 0.9222 and 0.8261 and 0.8207 and 0.6781 and 0.6674 and 0.7021.

And the “Relative reporter signal, experimental averages” value (pVC107 Qrr4, aTc 100 ng/ml, normalized to 0.0976562 ng/ml)?
The value was 0.6825 and 0.8563.

And the “Relative reporter signal, single replicates” value (pVC107 Qrr4, aTc 200 ng/ml)?
Its value is 0.9029 and 0.8931 and 0.8706 and 0.7542 and 0.8262 and 0.8413.

What about the “Relative reporter signal, experimental averages” value (pVC107 Qrr4, aTc 200 ng/ml, normalized to 0.0976562 ng/ml) of the same molecule?
Its value is 0.8072 and 0.8889.

And the “Relative reporter signal, experimental averages” value (pVC107 vector, aTc 0.0976562 ng/ml (normalization point))?
Its value is 1.

What about the “Relative reporter signal, experimental averages” value (pVC107 vector, aTc 0.195312 ng/ml, normalized to 0.0976562 ng/ml) of the same molecule?
Its value is 1.1928 and 0.9542.

And the “Relative reporter signal, experimental averages” value (pVC107 vector, aTc 0.390625 ng/ml, normalized to 0.0976562 ng/ml)?
The value was 1.239 and 0.9963.

What about the “Relative reporter signal, single replicates” value (pVC107 vector, aTc 0.78125 ng/ml) of the same molecule?
Its value is 1.048 and 0.979 and 1.04 and 0.9279.

What about the “Relative reporter signal, experimental averages” value (pVC107 vector, aTc 0.78125 ng/ml, normalized to 0.0976562 ng/ml) of the same molecule?
The value was 1.09 and 0.9823.

And the “Relative reporter signal, single replicates” value (pVC107 vector, aTc 1.5625 ng/ml)?
The value was 1.061 and 1.021 and 0.9897 and 0.9644 and 1.121 and 1.094.

What about the “Relative reporter signal, experimental averages” value (pVC107 vector, aTc 1.5625 ng/ml, normalized to 0.0976562 ng/ml) of the same molecule?
The value was 1.092 and 0.9917.

And the “Relative reporter signal, single replicates” value (pVC107 vector, aTc 3.125 ng/ml)?
The value was 0.9263 and 0.9693 and 1.011 and 0.9278 and 1.0391 and 1.108.

What about the “Relative reporter signal, experimental averages” value (pVC107 vector, aTc 3.125 ng/ml, normalized to 0.0976562 ng/ml) of the same molecule?
The value was 1.024 and 0.9695.

What about the “Relative reporter signal, single replicates” value (pVC107 vector, aTc 6.25 ng/ml) of the same molecule?
The value was 0.9938 and 0.9834 and 0.9842 and 0.9532 and 1.085 and 1.105.

What about the “Relative reporter signal, experimental averages” value (pVC107 vector, aTc 6.25 ng/ml, normalized to 0.0976562 ng/ml) of the same molecule?
The value was 1.061 and 0.9736.

What about the “Relative reporter signal, single replicates” value (pVC107 vector, aTc 12.5 ng/ml) of the same molecule?
Its value is 0.9967 and 0.9285 and 1.002 and 0.9658 and 1.022 and 1.055.

And the “Relative reporter signal, experimental averages” value (pVC107 vector, aTc 12.5 ng/ml, normalized to 0.0976562 ng/ml)?
Its value is 1.025 and 0.9655.

And the “Relative reporter signal, single replicates” value (pVC107 vector, aTc 25 ng/ml)?
The value was 1.488 and 0.9589 and 0.9637 and 0.9614 and 1.035 and 1.177.

What about the “Relative reporter signal, experimental averages” value (pVC107 vector, aTc 25 ng/ml, normalized to 0.0976562 ng/ml) of the same molecule?
The value was 1.233 and 0.9614.

What about the “Relative reporter signal, single replicates” value (pVC107 vector, aTc 50 ng/ml) of the same molecule?
The value was 1.1512 and 1.025 and 1.023 and 0.9608 and 1.174 and 1.186.

What about the “Relative reporter signal, experimental averages” value (pVC107 vector, aTc 50 ng/ml, normalized to 0.0976562 ng/ml) of the same molecule?
The value was 1.17 and 1.003.

And the “Relative reporter signal, single replicates” value (pVC107 vector, aTc 100 ng/ml)?
Its value is 1.032 and 0.8995 and 0.9791 and 1.0414 and 1.344 and 1.183.

What about the “Relative reporter signal, experimental averages” value (pVC107 vector, aTc 100 ng/ml, normalized to 0.0976562 ng/ml) of the same molecule?
The value was 1.1863 and 0.9733.

And the “Relative reporter signal, single replicates” value (pVC107 vector, aTc 200 ng/ml)?
The value was 1.427 and 1.005 and 1.106 and 1.055 and 1.369 and 1.3707.

And the “Relative reporter signal, experimental averages” value (pVC107 vector, aTc 200 ng/ml, normalized to 0.0976562 ng/ml)?
The value was 1.389 and 1.0553.
